Patent US12686674B2, “Crystal form of compound represented by formula I, and preparation therefor and application thereof” (Shanghai Zhimeng Biopharma, Inc., priority 2021, dated 2026)
≈ marks a conversion by molar mass, not a printed value.

Columns and labels:
Format in all cases: physicochemical
[1] = Influencing factor test of crystal form A (high temperature, high humidity, light)
Description: Sample purity and solubility data were collected using an Agilent model 1260 high-performance liquid chromatograph (equipped with DAD detector). [table]

[2] = Hygroscopicity by DVS at 25° C.
Experimental: Hygroscopicity data of samples were collected using an ADVENTURE series dynamic vapor phase adsorption system (DVS) under N2 protection. Sample dosage ~30 mg. The testing method for anhydrous crystal form is as follows: • 1) Relative humidity increase process: 0% RH to 90% RH at a rate of 10% RH/stage; 90% RH to 95% RH at a rate of 5% RH/stage; • 2) Relative humidity reduction process: 95% RH to 90% RH at a rate of 5% RH/stage; 90% RH to 5% RH at a rate of 10% RH/stage. H Nuclear Magnetic Resonance Spectroscopy (H-NMR)

[3] = Rough solubility at room temperature
Experimental: Specifically, ~2 mg of the starting material was weighed in an HPLC vial, the solvents in the following table were added step by step (50/50/200/700 μL) until the solid is completely dissolved or the total volume reaches 1.0 mL.

[4] = Influencing factor test of crystal form A (high temperature, high humidity, light); settings: High temperature (60° C.), Day 30
[5] = High humidity (25° C., 90% ± 5%), Day 5
[6] = High humidity (25° C., 90% ± 5%), Day 10
[7] = High humidity (25° C., 90% ± 5%), Day 30
[8] = High temperature (60° C.), Day 5
[9] = High temperature (60° C.), Day 10
[10] = High temperature (60° C.), Day 30
[11] = High temperature and humidity (60° C., 75% ± 5%), Day 5
[12] = High temperature and humidity (60° C., 75% ± 5%), Day 10
[13] = High temperature and humidity (60° C., 75% ± 5%), Day 30
[14] = Light exposure (25° C., 4500 Lx ± 500 Lx, NUV 0.9 w/m^2), bare sample, Day 5
[15] = Light exposure (25° C., 4500 Lx ± 500 Lx, NUV 0.9 w/m^2), bare sample, Day 10
[16] = Light exposure (25° C., 4500 Lx ± 500 Lx, NUV 0.9 w/m^2), bare sample, Day 30

Content (HPLC, calculated by anhydrous substance) ([1]; Day 0, Table M-2): 99.2% | Moisture (KF) ([1]; Day 0, Table M-2): 0.11% | Other single impurity RRT~1.10 (HPLC) ([1]; Day 0, Table M-2): 0:0.14% | Other single impurity RRT~1.23 (HPLC) ([1]; Day 0, Table M-2): 3:0.03% | Other single impurity RRT~1.44 (HPLC) ([1]; Day 0, Table M-2): 4:0.03% | Other single impurity RRT~1.53 (HPLC) ([1]; Day 0, Table M-2): 3:0.03% | Other single impurity RRT~1.87 (HPLC) ([1]; Day 0, Table M-2): 7:0.03% | Total impurities (HPLC) ([1]; Day 0, Table M-2): 0.26% | Content (HPLC, calculated by anhydrous substance) ([1]; Day 0, Table M-3): 99.8% | Moisture (KF) ([1]; Day 0, Table M-3): 0.11% | Other single impurity RRT~1.10 (HPLC) ([1]; Day 0, Table M-3): 0:0.13% | Other single impurity RRT~1.24 (HPLC) ([1]; Day 0, Table M-3): 4:0.03% | Other single impurity RRT~1.48 (HPLC) ([1]; Day 0, Table M-3): 8:0.03% | Other single impurity RRT~1.58 (HPLC) ([1]; Day 0, Table M-3): 8:0.03% | Other single impurity RRT~1.97 (HPLC) ([1]; Day 0, Table M-3): 7:0.03% | Total impurities (HPLC) ([1]; Day 0, Table M-3): 0.25% | Content (HPLC, calculated by anhydrous substance) [1, 5]: 99.4% | Moisture (KF) [1, 5]: 0.21% | Other single impurity RRT~1.10 (HPLC) [1, 5]: 0:0.14% | Other single impurity RRT~1.24 (HPLC) [1, 5]: 4:0.04% | Other single impurity RRT~1.48 (HPLC) [1, 5]: 8:0.03% | Other single impurity RRT~1.59 (HPLC) [1, 5]: 9:0.03% | Other single impurity RRT~1.92 (HPLC) [1, 5]: 2:0.03% | Other single impurity RRT~1.97 (HPLC) [1, 5]: 7:0.03% | Total impurities (HPLC) [1, 5]: 0.30% | Content (HPLC, calculated by anhydrous substance) [1, 6]: 99.7% | Moisture (KF) [1, 6]: 0.23% | Other single impurity RRT~1.10 (HPLC) [1, 6]: 0:0.13% | Other single impurity RRT~1.24 (HPLC) [1, 6]: 4:0.03% | Other single impurity RRT~1.46 (HPLC) [1, 6]: 6:0.03% | Other single impurity RRT~1.56 (HPLC) [1, 6]: 6:0.03% | Other single impurity RRT~1.88 (HPLC) [1, 6]: 8:0.03% | Other single impurity RRT~1.93 (HPLC) [1, 6]: 3:0.03% | Total impurities (HPLC) [1, 6]: 0.28% | Content (HPLC, calculated by anhydrous substance) [1, 7]: 101.3% | Moisture (KF) [1, 7]: 0.10% | Other single impurity RRT~1.10 (HPLC) [1, 7]: 0:0.15% | Other single impurity RRT~1.24 (HPLC) [1, 7]: 4:0.03% | Other single impurity RRT~1.48 (HPLC) [1, 7]: 8:0.03% | Other single impurity RRT~1.59 (HPLC) [1, 7]: 9:0.03% | Other single impurity RRT~1.92 (HPLC) [1, 7]: 2:0.03% | Other single impurity RRT~1.97 (HPLC) [1, 7]: 7:0.03% | Total impurities (HPLC) [1, 7]: 0.30% | Content (HPLC, calculated by anhydrous substance) [1, 8]: 99.1% | Moisture (KF) [1, 8]: 0.09% | Other single impurity RRT~1.10 (HPLC) [1, 8]: 0:0.13% | Other single impurity RRT~1.24 (HPLC) [1, 8]: 4:0.04% | Other single impurity RRT~1.48 (HPLC) [1, 8]: 8:0.03% | Other single impurity RRT~1.59 (HPLC) [1, 8]: 9:0.03% | Other single impurity RRT~1.92 (HPLC) [1, 8]: 2:0.03% | Other single impurity RRT~1.97 (HPLC) [1, 8]: 7:0.03% | Total impurities (HPLC) [1, 8]: 0.29% | Content (HPLC, calculated by anhydrous substance) [1, 9]: 99.8% | Moisture (KF) [1, 9]: 0.09% | Other single impurity RRT~1.10 (HPLC) [1, 9]: 0:0.14% | Other single impurity RRT~1.24 (HPLC) [1, 9]: 4:0.03% | Other single impurity RRT~1.46 (HPLC) [1, 9]: 6:0.03% | Other single impurity RRT~1.56 (HPLC) [1, 9]: 6:0.03% | Other single impurity RRT~1.93 (HPLC) [1, 9]: 3:0.03% | Total impurities (HPLC) [1, 9]: 0.26% | Content (HPLC, calculated by anhydrous substance) [1, 10]: 100.9% | Other single impurity RRT~1.10 (HPLC) [1, 10]: 0:0.14% | Other single impurity RRT~1.24 (HPLC) [1, 10]: 4:0.03% | Other single impurity RRT~1.48 (HPLC) [1, 10]: 8:0.03% | Other single impurity RRT~1.58 (HPLC) [1, 10]: 8:0.03% | Other single impurity RRT~1.92 (HPLC) [1, 10]: 2:0.03% | Other single impurity RRT~1.97 (HPLC) [1, 10]: 7:0.03% | Total impurities (HPLC) [1, 10]: 0.29% | Content (HPLC, calculated by anhydrous substance) [1, 11]: 99.6% | Moisture (KF) [1, 11]: 0.12% | Other single impurity RRT~1.10 (HPLC) [1, 11]: 0:0.14% | Other single impurity RRT~1.24 (HPLC) [1, 11]: 4:0.03% | Other single impurity RRT~1.46 (HPLC) [1, 11]: 6:0.03% | Other single impurity RRT~1.56 (HPLC) [1, 11]: 6:0.03% | Other single impurity RRT~1.88 (HPLC) [1, 11]: 8:0.03% | Other single impurity RRT~1.93 (HPLC) [1, 11]: 3:0.03% | Total impurities (HPLC) [1, 11]: 0.29% | Content (HPLC, calculated by anhydrous substance) [1, 12]: 101.3% | Moisture (KF) [1, 12]: 0.14% | Other single impurity RRT~1.10 (HPLC) [1, 12]: 0:0.14% | Other single impurity RRT~1.24 (HPLC) [1, 12]: 4:0.03% | Other single impurity RRT~1.48 (HPLC) [1, 12]: 8:0.03% | Other single impurity RRT~1.59 (HPLC) [1, 12]: 9:0.03% | Other single impurity RRT~1.97 (HPLC) [1, 12]: 7:0.03% | Total impurities (HPLC) [1, 12]: 0.26% | Content (HPLC, calculated by anhydrous substance) [1, 13]: 99.3% | Moisture (KF) [1, 13]: 0.14% | Other single impurity RRT~1.10 (HPLC) [1, 13]: 0:0.14% | Other single impurity RRT~1.24 (HPLC) [1, 13]: 4:0.03% | Other single impurity RRT~1.48 (HPLC) [1, 13]: 8:0.03% | Other single impurity RRT~1.58 (HPLC) [1, 13]: 8:0.03% | Other single impurity RRT~1.96 (HPLC) [1, 13]: 6:0.03% | Total impurities (HPLC) [1, 13]: 0.26% | Content (HPLC, calculated by anhydrous substance) [1, 14]: 99.6% | Moisture (KF) [1, 14]: 0.10% | Other single impurity RRT~1.10 (HPLC) [1, 14]: 0:0.14% | Other single impurity RRT~1.24 (HPLC) [1, 14]: 4:0.03% | Other single impurity RRT~1.46 (HPLC) [1, 14]: 6:0.03% | Other single impurity RRT~1.56 (HPLC) [1, 14]: 6:0.03% | Other single impurity RRT~1.93 (HPLC) [1, 14]: 3:0.03% | Total impurities (HPLC) [1, 14]: 0.26% | Content (HPLC, calculated by anhydrous substance) [1, 15]: 100.7% | Moisture (KF) [1, 15]: 0.10% | Other single impurity RRT~1.10 (HPLC) [1, 15]: 0:0.14% | Other single impurity RRT~1.24 (HPLC) [1, 15]: 4:0.03% | Other single impurity RRT~1.48 (HPLC) [1, 15]: 8:0.03% | Other single impurity RRT~1.59 (HPLC) [1, 15]: 9:0.03% | Other single impurity RRT~1.97 (HPLC) [1, 15]: 7:0.03% | Total impurities (HPLC) [1, 15]: 0.26% | Content (HPLC, calculated by anhydrous substance) [1, 16]: 99.8% | Moisture (KF) [1, 16]: 0.10% | Other single impurity RRT~1.10 (HPLC) [1, 16]: 0:0.13% | Other single impurity RRT~1.24 (HPLC) [1, 16]: 4:0.03% | Other single impurity RRT~1.48 (HPLC) [1, 16]: 8:0.03% | Other single impurity RRT~1.58 (HPLC) [1, 16]: 8:0.03% | Other single impurity RRT~1.97 (HPLC) [1, 16]: 7:0.03% | Total impurities (HPLC) [1, 16]: 0.25% | hygroscopicity ([2]; DVS at 25° C.): hardly hygroscopic | weight gain (DVS) ([2]; at 80% RH, 25° C.): 0.14% | crystal form after DVS testing (XRPD) ([2]; before and after DVS test): unchanged | solubility ([3]; organic solvent or mixture, thermodynamic from solid, 1,4-Dioxane): 6900 to 20700 µg/mL (≈ 12.3 to 36.8 mM) | solubility ([3]; organic solvent or mixture, thermodynamic from solid, 2-MeTHF): 6900 to 20700 µg/mL (≈ 12.3 to 36.8 mM) | solubility ([3]; organic solvent or mixture, thermodynamic from solid, ACN): < 2100 µg/mL | solubility ([3]; organic solvent or mixture, thermodynamic from solid, Acetone): 6800 to 20300 µg/mL (≈ 12.1 to 36.1 mM) | solubility ([3]; organic solvent or mixture, thermodynamic from solid, CH3COOH): > 41800 µg/mL | solubility ([3]; organic solvent or mixture, thermodynamic from solid, CPME): < 2000 µg/mL | solubility ([3]; organic solvent or mixture, thermodynamic from solid, DCM): < 2100 µg/mL | solubility ([3]; organic solvent or mixture, thermodynamic from solid, DMF): > 41200 µg/mL | solubility ([3]; organic solvent or mixture, thermodynamic from solid, DMSO): > 40400 µg/mL | solubility ([3]; organic solvent or mixture, thermodynamic from solid, EtOAc): < 2100 µg/mL | solubility ([3]; organic solvent or mixture, thermodynamic from solid, EtOH): 2000 to 6700 µg/mL (≈ 3.56 to 11.9 mM) | solubility ([3]; organic solvent or mixture, thermodynamic from solid, IPA): < 2100 µg/mL | solubility ([3]; organic solvent or mixture, thermodynamic from solid, IPAc): < 2000 µg/mL | solubility ([3]; organic solvent or mixture, thermodynamic from solid, MEK): 2000 to 6600 µg/mL (≈ 3.56 to 11.7 mM) | solubility ([3]; organic solvent or mixture, thermodynamic from solid, MIBK): < 2000 µg/mL | solubility ([3]; organic solvent or mixture, thermodynamic from solid, MTBE): < 2000 µg/mL | solubility ([3]; organic solvent or mixture, thermodynamic from solid, MeOH): 2000 to 6600 µg/mL (≈ 3.56 to 11.7 mM) | solubility ([3]; organic solvent or mixture, thermodynamic from solid, THF): > 40400 µg/mL | solubility ([3]; organic solvent or mixture, thermodynamic from solid, Toluene): < 2000 µg/mL | solubility ([3]; organic solvent or mixture, thermodynamic from solid, n-Heptane): < 2000 µg/mL | solubility ([3]; water, thermodynamic from solid, H2O): < 2100 µg/mL | Moisture (KF) [4]: 0.09%
Structure (SMILES): O=C1CO[C@H](c2cn(-c3ccc(Br)cc3)nc2-c2ccc(F)cc2)N1CCc1ccc2[nH]c(=O)[nH]c2c1 [Crystal form A]
